Assays:
TDG [1] = biological target: T1, TDG (Homo sapiens, UniProt Q13569); test: TDG inhibitory activity of compounds in cells (caC-cmv-firefly luciferase reporter, HEK 293T TDG KO cells transfected with pCDNA4-TDG); assay type: cell-based; conditions: read-out: Inhibition rate on TDG activity
Description: Experimental Determination of TDG Inhibitory Activity of Compounds in Cells
The operation steps of this example are as follows:
(1) Preparation of Methylation Reporter Plasmid:
(a) SAM with a stock solution concentration of 32 mM was diluted with ultrapure water to 1600 μM;
(b) The reaction system was prepared according to the following ratio: 30 μl ultrapure water, 5 μl 10×NEBuffer 2, 5 μl diluted SAM, 1 μg pCpGL-CMV-firefly plasmid, 1 μl SssI methylase (4 U/μl); 50 μl in total, the reaction was carried out at 37° C. for 2 hours;
(c) The mixture was heated at 65° C. for 20 minutes. Then 0.2% SDS was added, the reaction was carried out at 80° C. for 10 min; and then 1 μl Proteinase K was added, the reaction was carried out at 50° C. for 1 h;
(d) The methylated plasmid was recovered with Dr. GenTLE® sedimentation aid (TAKARA).
(2) Preparation of 5fC/5caC pCpGL-CMV-Firefly Reporter Plasmid
(a) The following 10× reaction system was prepared:
(b) The reaction system was prepared according to the following ratio:
(c) The reaction was carried out at 37° C. for one hour;
(d) 24 μg Tet1 protein was added for the second time and the reaction was continued for one hour;
(e) SDS was added to a final concentration of 0.5%, 80° C., 10 minutes, then 1 μl Proteinase K was added, 55° C. overnight.
(f) The treated caC-cmv-firefly plasmid was recovered with Dr. GenTLE® sedimentation aid (TAKARA) and was quantified.
(3) Using the Luciferase Activity Assay Method to Detect the Inhibitory Rate of Small Molecule Compounds on Intracellular TDG Enzyme Activity
In a 96-well plate, the reaction system and operation flow of each well were as follows:
(a) 1 ng caC-cmv-firefly, Ing pCpGL-CMV-Relina and 150 ng pCDNA4-TDG or 150 ng pCDNA4-myc plasmid, were diluted to 75 ul Opti-MEM, mixed well and allowed to stand still for 5 minutes;
(b) 2 ul transfection reagent (Hieff Trans™ Liposomal transfection Reagent (0.5 ul/well, YEAEEN, Cat #40802)) was diluted in 100 ul Opti-MEM, mixed well and allowed to stand still for 5 minutes;
(c) 75 ul of (a) and (b) were mixed respectively, and allowed to stand still at room temperature for 20 minutes;
(d) HEK 293T TDG KO cells were digested with trypsin, the cells were collected and counted, and the suspension cell concentration was adjusted to 4×10^5/ml;
(e) 50 ul of the mixture (c) was added to each well, and at the same time 100 ul of the diluted cell suspension was added to the same well, and they were mixed well.
(f) After the cells adhering to the wall, different concentrations of small molecule compounds to be tested were added to each well.
(g) Incubation was performed in a 37° C. CO2 incubator for 72 hours. The supernatant was removed and the cells were quickly freezed at −80° C.
(h) Before detecting the luciferase activity, the cells to be tested were removed from −80° C. and allowed to stand still at room temperature for 30 minutes. Following the instructions of Dual-Glo® Luciferase Reagent (PROMEGA), the firefly fluorescence value and Renilla fluorescence value of each well were detected.
(i) The firefly fluorescence value was divided with the Renilla fluorescence value of each well; 96-well plate Z′ and experimental window was calculated by the ratio of transfected caC-cmv-firefly, pCpGL-CMV-Relina, pCDNA4-TDG plasmid mixture plus DMSO experimental group to transfected caC-cmv-firefly, pCpGL-CMV-Relina, pCDNA4-myc plasmid mixture plus DMSO experimental group, and the relative enzyme activity inhibition rate of each compound was calculated.
According to the biological method described in this example, the selected compounds of the present invention were analyzed, and the results are shown in Table 2. Among them, “+” in Table 2 refers to the compound's TDG inhibitory activity at a concentration of 10 μM≤25%; “++” refers to the compound's TDG inhibitory activity at a concentration of 10 μM>25%.

TDG [2] = biological target: T1, TDG; test: Inhibition of TDG mismatch repair activity (fluorescent G·U double-stranded DNA probe T1-T2); assay type: biochemical; conditions: TDG 100 nM/L, preincubated with compound 37° C. 30 minutes; probe 30 nM; read-out: Inhibitory activity on TDG mismatch repair IC50
From the text: 14.1 Experimental Determination of Compound's Inhibitory Rate on TDG Mismatch Repair Activity
(1) A double-stranded DNA probe T1-T2 containing uracil bases was synthesized. The nucleotide sequence of the T1 chain was: 5′-FAM-TAAUGTGAATGGAGCTGAAAT-biotin-3′; The nucleotide sequence of the T2 chain was 5′-ATTTCAGCTCCATTCACGTTA-3′. Using PCR annealing program, the T1 strand and T2 strand were complementary to form a double-stranded DNA probe T1-T2.
(2) The reaction system and steps for each well of a 96-well plate were as follows: a. TDG (100 nM/L) was mixed with different concentrations of compounds, and the mixture was incubated at 37° C. for 30 minutes. The composition of the reaction buffer was: 20 mM HEPES pH7.5, 100 mM NaCl, 0.2 mM EDTA, 2.5 mM MgCl2; b. The double-stranded DNA probe T1-T2 was added to the mixture to obtain a final volume of 100 μL, with a concentration of 30 nM, and the mixture was incubated at 25° C. for 30 min; c. 1 μL of streptavidin magnetic beads were added to the reaction solution and fully bound the biotin-labeled DNA for 1 hour; d. NaOH was added to the reaction solution to a final concentration of 200 mM, and the mixture was incubated at room temperature for 30 minutes; e. Under the action of a magnetic stand the streptavidin magnetic beads were adsorbed to the tube wall, the supernatant was transferred to a new 96-well plate, and placed in a Tecan microplate reader for fluorescence measurement. The parameter settings were: excitation wavelength 485 nm; emission wavelength 520 nm. A linear curve between fluorescence intensity and TDG concentration was constructed, R^2=0.9968, and the linear range was 0-50 nM/L;
According to the biological method described in this example, the selected compounds of the present invention were analyzed, and the results are shown in Table 1. Among them, “++” in Table 1 refers to the inhibitory activity for TDG mismatch repair with IC50≤5 μM; “+” refers to the inhibitory activity for TDG mismatch repair with IC50>5 μM.

[3] = system: Lung cancer cell line Calu-1; test: Inhibition of the growth of Calu-1 cells (CellTiter-Glo, 72 hours); assay type: cell-based; conditions: Homo sapiens, 72 hours of culturing, read-out: Inhibitory activity on alu-1 cell growth IC50
Description: 14.2 Experimental Determination of Compound's Inhibitory Rate on the Growth of Calu-1 Cells
Lung cancer cell line Calu-1 was cultured in 90% McCoy's 5A medium (BI, 01-075-1ACS)+10% fetal bovine serum (Gibco, 10270106), placed in a CO2 incubator (37° C., 5% CO2, 95% air) for culturing. Calu-1 cells were digested with trypsin (Gibco, 12604-021) and seeded in a 384-well plate at a density of 500 cells per well. The medium was 50 μL and it was cultured overnight at 37° C. in an incubator. On the next day, different concentrations of test compounds were added, and the final concentration of DMSO was 0.1%. After 72 hours of culturing, the cells were taken out for test. The cell culture medium from the 384-well plate to be tested was removed, and fresh culture medium premixed with CTG was immediately added: the ratio of the culture medium to CellTiter-Glo® 2.0 reagent (Promega, G9243) was 2:1, 30 ul was added to each well. The plate was shaken at room temperature for 20 minutes, and then a multi-function plate reader (TECAN, Infinite 200 Pro) was used according to the reagent instructions to determine the cell survival.
According to the biological method described in this example, the selected compounds of the present invention were analyzed, and the results are shown in Table 1. Among them, “++” in Table 1 refers to the inhibitory activity on the growth of calu-1 cells with IC50≤5 μM; “+” refers to the inhibitory activity on the growth of calu-1 cells with IC50>5 μM.

T1 sequence (Q13569 whole entry): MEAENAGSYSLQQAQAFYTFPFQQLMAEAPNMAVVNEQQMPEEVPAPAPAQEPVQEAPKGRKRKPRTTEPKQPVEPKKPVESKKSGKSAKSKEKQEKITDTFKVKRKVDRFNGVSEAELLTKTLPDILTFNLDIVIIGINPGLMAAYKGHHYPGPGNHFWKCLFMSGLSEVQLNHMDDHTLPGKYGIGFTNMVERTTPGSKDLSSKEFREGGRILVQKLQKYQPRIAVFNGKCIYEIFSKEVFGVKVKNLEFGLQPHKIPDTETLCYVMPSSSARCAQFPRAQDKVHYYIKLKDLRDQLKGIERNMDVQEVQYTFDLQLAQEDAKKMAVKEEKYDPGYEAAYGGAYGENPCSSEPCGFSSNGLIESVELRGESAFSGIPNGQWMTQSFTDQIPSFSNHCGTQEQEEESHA

SMILES	inhibition at 10 µM (TDG [1]) [%]	IC50 (TDG [2]) [µM]	IC50 [3] [µM]
O=C1CCN(CCC(=O)c2ccc3c(c2)OCCO3)C1 [Compound 17, 1-(3-(2,3-dihydrobenzo[b][1,4]dioxin-6-yl)-3-oxopropyl)pyrrolidin-3-one]	< 25	≤ 5	> 5
O=C(CCN1Cc2ccc(F)cc2C1)c1ccc2c(c1)OCCO2 [Compound 6, 1-(2,3-dihydrobenzo[b][1,4]dioxin-6-yl)-3-(5-fluoroiso-2-yl)propan-1-one]	< 25	≤ 5	> 5
O=C(CCN1CCC(c2ccc(Cl)cc2)C1)c1ccc2c(c1)OCCO2 (centres unmarked) [Compound 49, 3-(3-(4-chlorophenyl)pyrrolidin-1-yl)-1-(2,3-dihydrobenzo[b][1,4]dioxin-6-yl)propan-1-one]	< 25	≤ 5	≤ 5
O=C(CCN1CCCC1)c1ccc2c(c1)OCCO2 [Compound 16, 1-(2,3-dihydrobenzo[b][1,4]dioxin-6-yl)-3-(pyrrolidin-1-yl)propan-1-one]	< 25	≤ 5	> 5
O=C(CCNC1=NCc2ccccc21)c1ccc2c(c1)OCCO2 [Compound 26, 3-((1H-isoindo1-3-yl)amino)-1-(2,3-dihydrobenzo[b][1,4]dioxin-6-yl)propan-1-one]	< 25	> 5	> 5
O=C(CCN1Cc2ccccc2C1)c1ccc(O)c(O)c1 [Compound 39, 1-(3,4-dihydroxyphenyl)-3-(isoindolin-2-yl)propan-1-one]	< 25	> 5	> 5
O=C(CCn1ccc(-c2ccc(F)cc2)cc1=O)c1ccc2c(c1)OCCO2 [Compound 18, 1-(3-(2,3-dihydrobenzo[b][1,4]dioxin-6-yl)-3-oxopropyl)-4-(4-fluorophenyl)pyridine-2(1H)-one]	> 25	≤ 5	> 5
N#Cc1ccc2c(c1)CN(CCC(=O)c1ccc3c(c1)OCCO3)C2 [Compound 8]	< 25	≤ 5	> 5
O=C(CCCN1Cc2ccccc2C1)c1ccc2c(c1)OCCO2 [Compound 31, 1-(2,3-dihydrobenzo[b][1,4]dioxin-6-yl)-4-(isoindolin-2-yl)butan-1-one]	< 25	> 5	> 5
O=C(CN1Cc2ccccc2C1)c1ccc2c(c1)OCCO2 [Compound 32, 1-(2,3-dihydrobenzo[b][1,4]dioxin-6-yl)-2-(isoindolin-2-yl)ethan-1-one]	< 25	> 5	> 5
O=C(CCN1CCC(c2ccc(C(F)(F)F)cc2)C1)c1ccc2c(c1)OCCO2 (centres unmarked) [Compound 45, 1-(2,3-dihydrobenzo[b][1,4]dioxin-6-yl)-3-(3-(4-(trifluoromethyl)phenyl)pyrrolidine-1-yl)propan-1-one]	< 25	> 5	≤ 5
O=C(CCN1CCc2ccccc2C(O)(c2ccc(F)cc2)C1)c1ccc2c(c1)C(=O)CCO2 (centres unmarked) [Compound 54, 6-(3-(1-(4-fluorophenyl)-1-hydroxy-1,2,4,5-tetrahydro-3H-benzo[d]azepine-3-yl)propionyl)chroman-4-one]	< 25	≤ 5	≤ 5
O=C(CCN1Cc2ccc(-c3ccc(F)cc3)cc2C1)c1ccc2c(c1)OCCO2 [Compound 40, 1-(2,3-dihydrobenzo[b][1,4]dioxin-6-yl)-3-(5-(4-fluorophenyl)isoindolin-2-yl)propan-1-one]	< 25	> 5	> 5
O=C(CCN1CC2C=CC(c3ccncc3)=CC2C1)c1ccc2c(c1)OCCO2 (centres unmarked) [Compound 41, 1-(2,3-dihydrobenzo[b][1,4]dioxin-6-yl)-3-(5-(pyridin-4-yl)-1,3,3a,7αtetrahydro-2H-isoindolepyridin-2-yl)propan-1-one]	< 25	> 5	> 5
COc1ccc2cn(CCC(=O)c3ccc4c(c3)OCCO4)nc2c1 [Compound 24, 1-(2,3-dihydrobenzo[b][1,4]dioxin-6-yl)-3-(6-methoxy-2H-indazol-2-yl)propan-1-one]	< 25	> 5	> 5
O=C(CCNc1ccc2cnccc2c1)c1ccc2c(c1)OCCO2 [Compound 20, 1-(2,3-dihydrobenzo[b][1,4]dioxin-6-yl)-3-(isoquinolin-6-ylamino)propan-1-one]	< 25	> 5	> 5
Cc1ccc(C2CCN(CCC(=O)c3ccc4c(c3)OCCO4)C2)cc1 (centres unmarked) [Compound 48, 1-(2,3-dihydrobenzo[b][1,4]dioxin-6-yl)-3-(3-(p-tolyl)pyrrolidin-1-yl)propan-1-one]	–	≤ 5	≤ 5

From patent US20220213070A1, “COMPOUNDS INHIBITING TDG ACTIVITY” (EPITAS BIOSCIENCES (SHANGHAI) CO., LTD., priority 2019, published 2022)
